Assay [1] has as its target T1, MAO-B of the brain of a rat (Rattus norvegicus, UniProt P19643).
T1 construct: total rat brain homogenate, with 1 g of tissue/16 ml of phosphate buffer; from tissue; host or cells: rat brain, total homogenate
T1 sequence (P19643 1-520): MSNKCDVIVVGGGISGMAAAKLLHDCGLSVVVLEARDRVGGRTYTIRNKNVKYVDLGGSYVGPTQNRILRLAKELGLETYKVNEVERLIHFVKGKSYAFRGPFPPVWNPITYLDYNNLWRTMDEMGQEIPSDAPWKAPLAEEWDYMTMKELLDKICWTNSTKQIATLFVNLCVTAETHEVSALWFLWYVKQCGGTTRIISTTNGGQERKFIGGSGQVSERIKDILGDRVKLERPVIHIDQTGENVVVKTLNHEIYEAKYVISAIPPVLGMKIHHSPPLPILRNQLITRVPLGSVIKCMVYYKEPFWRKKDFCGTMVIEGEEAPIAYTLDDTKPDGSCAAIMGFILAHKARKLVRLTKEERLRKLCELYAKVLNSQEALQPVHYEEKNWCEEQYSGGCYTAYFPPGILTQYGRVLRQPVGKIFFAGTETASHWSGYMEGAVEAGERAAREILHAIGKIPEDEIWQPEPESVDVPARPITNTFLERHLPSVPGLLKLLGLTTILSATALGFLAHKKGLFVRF
Put plainly: in vitro inhibition of MAO-B, total rat brain homogenate. It counts as biochemical. The note with it: preincubation of 60'; for ratio IC 50 (A) / IC 50 (B) (head is drawing 22): selectivity MAO-B over MAO-A, 60 min; for IC50: total rat brain homogenate, 1 g of tissue/16 ml phosphate buffer pH 7.4, substrate [14C]phenylethylamine 12 μM, read-out: IC 50 (B), MAO-B. The method, then:
(§1) This activity has been given prominence by the implementation of the protocol described by P. DOSTERT et al. in J. Pharm. Parmacol., 1983, 35, 161-165; this protocol is based on enzymatic tests carried out with or without preincubation in particular for 60 minutes and it allows measurement in vitro of the inhibiting effect with regard to the MAO-A and the MAO-B of the brain of a rat.
(§2) In Table 4 below are shown the inhibiting concentrations 50 (IC 50) for the A and B forms of MAO, obtained for a number of compounds (I) according to the invention following the above protocol applied to a total rat brain homogenate, with 1 g of tissue/16 ml of phosphate buffer of pH 7.4.
(§3) Substrate concentrations: [^14 C]5hydroxytryptamine = 480 μM,
(§4) [^14 C]phenylethylamine = 12 μM for the study of the inhibition o

Assay [2] has as its target T2, MAO-A of the brain of a rat (Rattus norvegicus, UniProt P21396).
T2 construct: total rat brain homogenate, with 1 g of tissue/16 ml of phosphate buffer; from tissue; host or cells: rat brain, total homogenate
T2 sequence (P21396 1-526): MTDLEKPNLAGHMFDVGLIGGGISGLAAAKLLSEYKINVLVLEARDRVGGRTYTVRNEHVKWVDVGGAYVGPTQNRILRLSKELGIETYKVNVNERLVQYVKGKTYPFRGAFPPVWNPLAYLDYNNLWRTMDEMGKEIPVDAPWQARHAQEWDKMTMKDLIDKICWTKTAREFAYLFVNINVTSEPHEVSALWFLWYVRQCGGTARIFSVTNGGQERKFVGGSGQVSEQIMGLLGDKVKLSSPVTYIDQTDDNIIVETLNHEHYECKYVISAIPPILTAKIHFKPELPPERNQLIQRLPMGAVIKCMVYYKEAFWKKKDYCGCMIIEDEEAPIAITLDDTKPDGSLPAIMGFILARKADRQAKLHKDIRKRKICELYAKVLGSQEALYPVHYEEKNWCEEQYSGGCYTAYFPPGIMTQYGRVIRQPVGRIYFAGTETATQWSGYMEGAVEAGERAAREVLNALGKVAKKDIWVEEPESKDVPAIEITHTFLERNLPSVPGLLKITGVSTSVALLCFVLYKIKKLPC
Description: in vitro inhibition of MAO-A, total rat brain homogenate. The note with it: preincubation of 60', 1 g of tissue/16 ml phosphate buffer pH 7.4, substrate [14C]5-hydroxytryptamine 480 μM, read-out: IC 50 (A), MAO-A. Type of assay: biochemical. The method, then:
as §1, §2, §3, §4

A value given as a limit tells only on which side of the number the result lay.

In the case of `C[C@H]([C@H]1CN(c2ccc(OCc3cccc(Cl)c3)cc2)C(=O)O1)N(C)C` (relative stereo) [compound 340748], in assay [1], the “ratio IC 50 (A) / IC 50 (B) (head is drawing 22)” value (“ratio IC 50 (A) / IC 50 (B)” below) is given as more than 15 and the IC50 amounted to 20 µM. The IC50 in assay [2] was 300 µM.
On to `COc1cccc(COc2ccc(N3C[C@H]([C@@H](C)N(C)C)OC3=O)cc2)c1` (relative stereo) [compound 340749], for which, in assay [1], the “ratio IC 50 (A) / IC 50 (B)” value is recorded as more than 10 and the IC50 is 300 µM. Further, the IC50 in assay [2] is more than 30 µM.
As for `C[C@H](N)[C@H]1CN(c2ccc(OCc3cccc(Cl)c3)cc2)C(=O)O1` (relative stereo) [compound 340750], in assay [1], the “ratio IC 50 (A) / IC 50 (B)” value amounted to 553 and the IC50 was 0.38 µM. Moreover, the IC50 in assay [2] came out at 210 µM.
As for `CN[C@H](C)[C@@H]1CN(c2ccc(OCc3cccc(Cl)c3)cc2)C(=O)O1` [compound 340179], in assay [1], the “ratio IC 50 (A) / IC 50 (B)” value came out at 16. Besides, the figures for the IC50 in assay [1] and in assay [2] were 1.16 µM and 18.3 µM, respectively.
`COc1cccc(COc2ccc(N3C[C@H]([C@H](C)N(C)C)OC3=O)cc2)c1` [compound 340744]: in assay [1], the “ratio IC 50 (A) / IC 50 (B)” value is on record as more than 4000 and the IC50 was 0.25 µM. In addition, in assay [2], the IC50 was more than 1000 µM.
The matching figures for `COc1cccc(COc2ccc(N3C[C@H]([C@H](C)N(C)C)OC3=O)cc2)c1` (relative stereo) [compound 340743]: 2500, 0.4 µM and 1000 µM.
In the case of `COc1cccc(COc2ccc(N3C[C@@H]([C@@H](C)N(C)C)OC3=O)cc2)c1` [compound 340747], in assay [1], the “ratio IC 50 (A) / IC 50 (B)” value is more than 67. The IC50 in assay [1] is 15 µM; in assay [2] it was more than 1000 µM.
`C[C@H]([C@@H]1CN(c2ccc(OCc3cccc(Cl)c3)cc2)C(=O)O1)N(C)C` [compound 340746]: in assay [1], the “ratio IC 50 (A) / IC 50 (B)” value is recorded as more than 625 and the IC50 worked out at 1.6 µM. In addition, the IC50 in assay [2] is more than 1000 µM.
With `C[C@H](N)[C@@H]1CN(c2ccc(OCc3cccc(Cl)c3)cc2)C(=O)O1` [compound 340366], in assay [1], the “ratio IC 50 (A) / IC 50 (B)” value is given as more than 61 and the IC50 was 1.64 µM. In addition, the IC50 in assay [2] was more than 100 µM.
Taken in the same sequence, the figures for `CN[C@@H](C)[C@H]1CN(c2ccc(OCc3cccc(Cl)c3)cc2)C(=O)O1` (relative stereo) [compound 340745] were 300, 0.05 µM and 15 µM.
As to `C[C@@H](N)[C@H]1CN(c2ccc(OCc3cccc(Cl)c3)cc2)C(=O)O1` [compound 340321], in assay [1], the “ratio IC 50 (A) / IC 50 (B)” value was more than 19 and the IC50 was 5.34 µM. Moreover, the IC50 in assay [2] was more than 100 µM.
Take `CN[C@@H](C)[C@H]1CN(c2ccc(OCc3cccc(Cl)c3)cc2)C(=O)O1` [compound 340271]: the “ratio IC 50 (A) / IC 50 (B)” value in assay [1] is 95. Besides, the IC50 amounted to 0.078 µM in assay [1] and 7.43 µM in assay [2].
Regarding `C[C@@H]([C@H]1CN(c2ccc(OCc3cccc(Cl)c3)cc2)C(=O)O1)N(C)C` (relative stereo) [compound 340742], in assay [1], the “ratio IC 50 (A) / IC 50 (B)” value is more than 6250 and the IC50 came to 0.16 µM. Besides, in assay [2], the IC50 was more than 1000 µM.
Consider `C[C@@H]([C@H]1CN(c2ccc(OCc3cccc(Cl)c3)cc2)C(=O)O1)N(C)C` [compound 200562, erythro stereoisomer (-) (R, S) of 3-[4-(3-chlorobenzyloxy)phenyl] 5-(1-dimethylaminoethyl) oxazolidin-2-one], for which, in assay [1], the “ratio IC 50 (A) / IC 50 (B)” value was more than 1887 and the IC50 came out at 0.053 µM. Further, the IC50 in assay [2] is more than 100 µM.
As to `CN[C@@H](C)[C@@H]1CN(c2ccc(OCc3cccc(Cl)c3)cc2)C(=O)O1` [compound 340333], in assay [1], the “ratio IC 50 (A) / IC 50 (B)” value is more than 78 and the IC50 was found to be 1.28 µM. The IC50 in assay [2] is more than 100 µM.
For the molecule `CN[C@H](C)[C@H]1CN(c2ccc(OCc3cccc(Cl)c3)cc2)C(=O)O1` [compound 340276], in assay [1], the “ratio IC 50 (A) / IC 50 (B)” value is 110 and the IC50 was 1.35 µM. Further, in assay [2], the IC50 was 148 µM.

For the origin of these results see patent US4897409A, “5-aminoethyloxazolidin-2-one derivatives” (Delalande S.A., priority 1986, dated 1990).
